{"source": "ChEMBL document CHEMBL5338727", "about": "“From (Tool)Bench to Bedside: The Potential of Necroptosis Inhibitors” (J Med Chem, 2023)", "key": {"[1]": {"assay": "Anti-necroptotic activity in mouse BMDM cells assessed as inhibition of TNF/zVAD.fmk induced necroptosis pretreated for 30 mins measured after 19 to 21 hrs by CellTiter-Glo Luminescent Cell Viability assay"}, "[2]": {"biological_target": "T1, Receptor-interacting serine/threonine-protein kinase 3 (Homo sapiens, UniProt Q9Y572)", "T1 sequence (Q9Y572 whole entry)": "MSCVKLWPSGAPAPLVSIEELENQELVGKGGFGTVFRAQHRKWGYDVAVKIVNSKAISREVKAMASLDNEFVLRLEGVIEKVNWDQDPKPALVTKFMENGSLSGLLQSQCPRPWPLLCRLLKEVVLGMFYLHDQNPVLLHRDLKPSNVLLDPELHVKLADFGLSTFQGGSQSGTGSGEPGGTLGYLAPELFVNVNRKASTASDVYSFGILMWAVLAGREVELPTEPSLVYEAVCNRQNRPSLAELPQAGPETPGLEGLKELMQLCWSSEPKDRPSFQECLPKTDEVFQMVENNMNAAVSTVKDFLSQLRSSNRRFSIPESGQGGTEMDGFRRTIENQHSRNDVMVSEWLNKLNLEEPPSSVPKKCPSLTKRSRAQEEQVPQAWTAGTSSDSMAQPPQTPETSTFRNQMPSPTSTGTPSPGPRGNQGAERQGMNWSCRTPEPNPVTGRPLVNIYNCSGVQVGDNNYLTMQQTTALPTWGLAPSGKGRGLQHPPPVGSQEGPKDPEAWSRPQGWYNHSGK", "assay": "Inhibition of RIPK3 (unknown origin) expressed in NIH3T3 cells assessed as inhibition of dimerizer-induced pMLKL level by Western blot analysis", "type": "cell-based"}, "[3]": {"assay": "Half life in C57BL/6 mouse plasma at 5 mg/kg, iv", "type": "ADME, organism-based"}, "[4]": {"assay": "Volume of distribution in C57BL/6 mouse plasma at 5 mg/kg, iv", "type": "ADME, organism-based"}, "[5]": {"assay": "Clearance in C57BL/6 mouse plasma at 5 mg/kg, iv", "type": "ADME, organism-based"}, "[6]": {"biological_target": "Receptor-interacting serine/threonine-protein kinase 2 (Homo sapiens) (UniProt O43353)", "sequence (O43353 whole entry)": "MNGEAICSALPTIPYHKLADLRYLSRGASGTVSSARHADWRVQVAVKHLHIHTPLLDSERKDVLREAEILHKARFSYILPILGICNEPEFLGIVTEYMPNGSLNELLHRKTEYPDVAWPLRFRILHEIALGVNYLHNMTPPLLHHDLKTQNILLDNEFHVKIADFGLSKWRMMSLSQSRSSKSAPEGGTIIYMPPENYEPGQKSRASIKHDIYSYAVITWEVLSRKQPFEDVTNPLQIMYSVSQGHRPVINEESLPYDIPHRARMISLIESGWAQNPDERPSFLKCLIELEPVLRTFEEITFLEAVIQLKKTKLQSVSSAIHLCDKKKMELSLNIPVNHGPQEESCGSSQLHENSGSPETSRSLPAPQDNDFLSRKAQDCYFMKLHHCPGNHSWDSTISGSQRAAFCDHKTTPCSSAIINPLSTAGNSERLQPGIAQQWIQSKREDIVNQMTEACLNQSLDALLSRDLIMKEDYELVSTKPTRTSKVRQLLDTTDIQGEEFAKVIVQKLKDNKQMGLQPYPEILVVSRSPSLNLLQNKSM", "assay": "Inhibition of RIPK2 (unknown origin) at 1 uM relative to control"}, "Jurkat [7]": {"system": "Jurkat", "assay": "Anti-necroptotic activity in FADD-deficient human Jurkat cells assessed as reduction in cell growth preincubated for 30 mins followed by TNFalpha stimulation incubated overnight by CellTiter-Glo assay", "type": "functional, cell-based"}, "[8]": {"assay": "Anti-necroptotic activity in mouse dermal fibroblast assessed as inhibition in T/S/Q induced necroptosis measured by flow cytometry", "type": "functional, cell-based"}, "[9]": {"assay": "Volume of distribution at steady state in 2 hrs fasted CD-1 mouse at 3 mg/kg, po", "type": "ADME, organism-based", "conditions": "in vivo"}, "[10]": {"assay": "AUC (last) in 2 hrs fasted CD-1 mouse at 3 mg/kg, po", "type": "ADME, organism-based", "parameters": "dose 3 mg/kg, route po", "conditions": "in vivo"}, "[11]": {"assay": "Oral bioavailability in 2 hrs fasted CD-1 mouse at 3 mg/kg", "type": "ADME, organism-based", "conditions": "in vivo"}, "[12]": {"assay": "Clearance in 2 hrs fasted CD-1 mouse at 3 mg/kg, po", "type": "ADME, organism-based", "conditions": "in vivo"}, "Jurkat [13]": {"system": "Jurkat", "assay": "Anti-necroptotic activity in FADD null human Jurkat cells assessed as inhibition of T/S/Z induced necroptosis by CellTiter-Glo Luminescent Cell Viability assay", "type": "functional, cell-based"}, "HT-29": {"system": "HT-29", "assay": "Anti-necroptotic activity in human HT-29 cells assessed as inhibition of T/S/Z induced necroptosis by CellTiter-Glo Luminescent Cell Viability assay", "type": "functional, cell-based"}, "[14]": {"biological_target": "T2, Receptor-interacting serine/threonine-protein kinase 1 (Homo sapiens, UniProt Q13546)", "T2 sequence (Q13546 whole entry)": "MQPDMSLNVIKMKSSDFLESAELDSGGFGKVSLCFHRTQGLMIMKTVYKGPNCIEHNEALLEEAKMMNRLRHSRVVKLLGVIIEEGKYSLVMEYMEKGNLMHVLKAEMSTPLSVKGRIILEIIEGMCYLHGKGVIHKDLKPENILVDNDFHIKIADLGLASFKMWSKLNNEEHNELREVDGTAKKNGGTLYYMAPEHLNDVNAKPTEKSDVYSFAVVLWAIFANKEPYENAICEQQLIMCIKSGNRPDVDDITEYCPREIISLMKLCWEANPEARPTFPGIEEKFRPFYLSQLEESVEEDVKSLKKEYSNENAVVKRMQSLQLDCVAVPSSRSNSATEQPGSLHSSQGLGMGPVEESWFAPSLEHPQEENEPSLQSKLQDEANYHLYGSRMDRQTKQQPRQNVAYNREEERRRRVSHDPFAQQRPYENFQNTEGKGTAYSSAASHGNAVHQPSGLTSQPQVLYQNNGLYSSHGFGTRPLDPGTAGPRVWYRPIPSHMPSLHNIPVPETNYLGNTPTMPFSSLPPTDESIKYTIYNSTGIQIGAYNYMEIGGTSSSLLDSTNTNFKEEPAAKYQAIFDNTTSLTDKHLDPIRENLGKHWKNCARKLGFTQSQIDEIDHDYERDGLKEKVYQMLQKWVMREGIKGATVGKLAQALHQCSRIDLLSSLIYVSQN", "assay": "Binding affinity to RIPK1 (unknown origin) by ADP-GlO assay"}, "CYP2D6": {"biological_target": "CYP2D6 (Homo sapiens, UniProt P10635)", "sequence (P10635 whole entry)": "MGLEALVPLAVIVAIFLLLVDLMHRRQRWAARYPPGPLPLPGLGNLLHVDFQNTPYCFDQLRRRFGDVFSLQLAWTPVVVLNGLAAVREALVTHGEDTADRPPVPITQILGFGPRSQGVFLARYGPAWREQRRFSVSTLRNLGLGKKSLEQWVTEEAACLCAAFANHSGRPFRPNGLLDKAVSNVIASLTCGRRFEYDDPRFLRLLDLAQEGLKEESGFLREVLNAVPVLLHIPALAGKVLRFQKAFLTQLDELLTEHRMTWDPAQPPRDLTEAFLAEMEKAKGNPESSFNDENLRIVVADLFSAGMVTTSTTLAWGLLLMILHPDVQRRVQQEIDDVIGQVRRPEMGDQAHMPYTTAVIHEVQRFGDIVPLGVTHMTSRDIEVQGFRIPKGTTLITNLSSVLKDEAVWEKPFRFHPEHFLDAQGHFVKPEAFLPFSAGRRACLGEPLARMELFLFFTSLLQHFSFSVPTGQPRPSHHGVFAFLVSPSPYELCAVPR", "assay": "Inhibition of CYP2D6 (unknown origin) at 10 uM", "type": "ADME"}, "CYP3A4": {"biological_target": "CYP3A4 (Homo sapiens, UniProt P08684)", "sequence (P08684 whole entry)": "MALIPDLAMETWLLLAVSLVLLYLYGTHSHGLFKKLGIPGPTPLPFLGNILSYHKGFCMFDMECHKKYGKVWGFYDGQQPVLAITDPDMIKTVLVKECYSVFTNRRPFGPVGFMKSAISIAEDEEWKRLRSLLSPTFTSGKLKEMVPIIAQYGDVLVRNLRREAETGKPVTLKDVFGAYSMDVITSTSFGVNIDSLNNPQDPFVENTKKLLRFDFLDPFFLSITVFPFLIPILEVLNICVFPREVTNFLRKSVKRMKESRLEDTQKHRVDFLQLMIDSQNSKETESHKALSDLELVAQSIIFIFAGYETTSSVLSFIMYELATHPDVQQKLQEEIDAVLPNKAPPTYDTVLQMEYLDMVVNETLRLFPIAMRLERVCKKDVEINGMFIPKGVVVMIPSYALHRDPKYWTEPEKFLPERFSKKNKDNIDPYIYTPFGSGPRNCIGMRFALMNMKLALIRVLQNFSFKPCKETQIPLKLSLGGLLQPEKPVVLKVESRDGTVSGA", "assay": "Inhibition of CYP3A4 (unknown origin) at 10 uM", "type": "ADME"}, "CYP2C9": {"biological_target": "CYP2C9 (Homo sapiens, UniProt P11712)", "sequence (P11712 whole entry)": "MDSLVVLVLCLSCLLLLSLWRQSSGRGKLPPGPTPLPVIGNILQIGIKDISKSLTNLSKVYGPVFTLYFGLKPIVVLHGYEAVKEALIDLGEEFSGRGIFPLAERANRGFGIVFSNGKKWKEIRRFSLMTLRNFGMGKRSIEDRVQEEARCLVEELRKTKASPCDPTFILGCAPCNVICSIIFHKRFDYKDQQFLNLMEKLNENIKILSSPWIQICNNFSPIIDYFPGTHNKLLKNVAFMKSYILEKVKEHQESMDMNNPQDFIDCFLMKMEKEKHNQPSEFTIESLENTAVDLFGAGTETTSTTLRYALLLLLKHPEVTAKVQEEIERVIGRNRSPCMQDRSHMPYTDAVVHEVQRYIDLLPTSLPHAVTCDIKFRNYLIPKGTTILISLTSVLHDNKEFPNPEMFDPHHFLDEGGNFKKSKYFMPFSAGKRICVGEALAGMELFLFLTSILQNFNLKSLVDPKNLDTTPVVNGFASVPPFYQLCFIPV", "assay": "Inhibition of CYP2C9 (unknown origin) at 10 uM", "type": "ADME"}, "[15]": {"assay": "Half life in ICR mouse at 2 mg/kg, iv", "type": "ADME, organism-based", "conditions": "in vivo"}, "[16]": {"assay": "Metabolic stability in mouse liver microsomes assessed as half life", "type": "ADME, Microsome"}, "[17]": {"assay": "Metabolic stability in mouse liver microsomes assessed as intrinsic clearance", "type": "ADME, Microsome", "conditions": "read-out: CLH"}, "[18]": {"assay": "Volume of distribution in ICR mouse at 2 mg/kg, iv", "type": "ADME, organism-based", "conditions": "in vivo"}, "[19]": {"assay": "AUC in ICR mouse at 10 mg/kg, po", "type": "ADME, organism-based", "parameters": "dose 10 mg/kg, route po", "conditions": "in vivo"}, "CYP2C19": {"biological_target": "CYP2C19 (Homo sapiens, UniProt P33261)", "sequence (P33261 whole entry)": "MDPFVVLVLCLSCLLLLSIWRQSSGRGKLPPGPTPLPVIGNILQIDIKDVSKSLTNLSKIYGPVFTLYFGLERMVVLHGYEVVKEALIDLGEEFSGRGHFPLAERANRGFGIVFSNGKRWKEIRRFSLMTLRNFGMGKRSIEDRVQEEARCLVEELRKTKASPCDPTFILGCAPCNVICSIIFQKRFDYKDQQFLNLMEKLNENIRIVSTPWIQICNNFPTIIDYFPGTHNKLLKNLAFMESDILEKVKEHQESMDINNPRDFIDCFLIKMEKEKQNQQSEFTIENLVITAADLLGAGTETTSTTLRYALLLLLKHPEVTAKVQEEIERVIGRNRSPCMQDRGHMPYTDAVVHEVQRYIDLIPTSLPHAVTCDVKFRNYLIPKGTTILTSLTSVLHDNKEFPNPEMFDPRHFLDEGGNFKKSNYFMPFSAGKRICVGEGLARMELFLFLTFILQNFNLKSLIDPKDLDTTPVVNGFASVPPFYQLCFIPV", "assay": "Inhibition of CYP2C19 (unknown origin) at 10 uM", "type": "ADME"}, "[20]": {"assay": "Metabolic stability in rat liver microsomes assessed as intrinsic clearance", "type": "ADME, Microsome", "conditions": "read-out: CLH"}, "[21]": {"biological_target": "Voltage-gated inwardly rectifying potassium channel KCNH2 (Homo sapiens, UniProt Q12809)", "sequence (Q12809 whole entry)": "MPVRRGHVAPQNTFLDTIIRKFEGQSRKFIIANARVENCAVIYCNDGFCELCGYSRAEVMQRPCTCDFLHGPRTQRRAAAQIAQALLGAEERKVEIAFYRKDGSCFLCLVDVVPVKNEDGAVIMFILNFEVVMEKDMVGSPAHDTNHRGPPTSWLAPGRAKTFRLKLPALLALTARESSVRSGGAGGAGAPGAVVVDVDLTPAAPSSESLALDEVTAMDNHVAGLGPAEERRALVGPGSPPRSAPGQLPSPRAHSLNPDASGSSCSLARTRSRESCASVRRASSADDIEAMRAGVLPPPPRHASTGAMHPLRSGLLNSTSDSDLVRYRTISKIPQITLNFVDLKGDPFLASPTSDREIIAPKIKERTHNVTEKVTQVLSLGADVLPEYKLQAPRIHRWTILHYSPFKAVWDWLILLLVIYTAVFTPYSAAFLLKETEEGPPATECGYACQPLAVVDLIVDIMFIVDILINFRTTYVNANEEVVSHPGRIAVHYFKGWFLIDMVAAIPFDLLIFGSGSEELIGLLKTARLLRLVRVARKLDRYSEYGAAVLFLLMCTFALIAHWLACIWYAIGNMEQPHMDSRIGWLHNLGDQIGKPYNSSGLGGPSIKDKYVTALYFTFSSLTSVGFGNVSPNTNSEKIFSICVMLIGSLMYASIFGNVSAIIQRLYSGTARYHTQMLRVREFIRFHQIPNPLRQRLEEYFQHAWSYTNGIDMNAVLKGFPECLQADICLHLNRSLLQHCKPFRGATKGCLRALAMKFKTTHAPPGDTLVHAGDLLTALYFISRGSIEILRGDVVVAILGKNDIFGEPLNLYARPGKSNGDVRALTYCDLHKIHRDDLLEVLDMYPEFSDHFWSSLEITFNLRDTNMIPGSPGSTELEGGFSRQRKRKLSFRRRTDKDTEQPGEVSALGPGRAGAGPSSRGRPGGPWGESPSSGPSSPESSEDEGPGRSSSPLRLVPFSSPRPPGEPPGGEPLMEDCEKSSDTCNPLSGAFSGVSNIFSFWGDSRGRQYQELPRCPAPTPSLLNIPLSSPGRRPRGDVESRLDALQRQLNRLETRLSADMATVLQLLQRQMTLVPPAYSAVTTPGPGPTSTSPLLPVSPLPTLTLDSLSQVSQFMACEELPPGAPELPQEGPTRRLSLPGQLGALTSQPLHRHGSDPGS", "assay": "Inhibition of hERG at 10 uM", "type": "toxicity"}, "CYP1A2": {"biological_target": "T3, CYP1A2 (Homo sapiens, UniProt P05177)", "T3 sequence (P05177 whole entry)": "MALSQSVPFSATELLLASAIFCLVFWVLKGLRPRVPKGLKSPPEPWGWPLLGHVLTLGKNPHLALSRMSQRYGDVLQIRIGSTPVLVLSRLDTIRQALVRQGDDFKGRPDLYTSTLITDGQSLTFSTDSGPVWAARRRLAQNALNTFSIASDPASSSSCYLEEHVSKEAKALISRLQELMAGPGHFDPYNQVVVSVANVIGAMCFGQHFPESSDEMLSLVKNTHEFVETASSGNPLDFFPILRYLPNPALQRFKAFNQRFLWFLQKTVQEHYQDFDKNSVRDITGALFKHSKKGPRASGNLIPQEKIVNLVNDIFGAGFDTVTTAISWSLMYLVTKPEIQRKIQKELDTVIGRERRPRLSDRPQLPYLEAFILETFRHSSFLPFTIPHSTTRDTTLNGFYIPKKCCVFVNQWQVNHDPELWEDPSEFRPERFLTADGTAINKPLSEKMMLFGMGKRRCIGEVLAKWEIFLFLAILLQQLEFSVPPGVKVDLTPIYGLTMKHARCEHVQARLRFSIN", "assay": "Inhibition of CYP1A2 (unknown origin) at 10 uM", "type": "ADME"}, "[22]": {"assay": "Clearance in ICR mouse at 2 mg/kg, iv", "type": "ADME, organism-based", "conditions": "in vivo"}, "[23]": {"assay": "Metabolic stability in rat liver microsomes assessed as half life", "type": "ADME, Microsome"}, "[24]": {"biological_target": "T1, Receptor-interacting serine/threonine-protein kinase 3", "assay": "Inhibition of human RIPK3 using MBP as substrate by [gamma33-ATP] based radiometric assay"}}, "note": "“And” between values parts separate entries of the source, which are not always exact repeats. Identical values can stand only once.", "data": [{"smiles": "CC(C)(C)C(=O)N1N=CC[C@H]1c1ccccc1", "values": [{"measurement": "IC50", "setting": "[1]", "result": 3, "unit": "nM"}]}, {"smiles": "Cc1ccc(O)cc1Nc1ccnc2cc(-c3ccccn3)ccc12", "values": [{"measurement": "EC50", "setting": "[2]", "result": 73.6, "unit": "nM"}]}, {"smiles": "COc1cc2c(cn1)N(C)C(=O)[C@@H](NC(=O)c1nc3n(n1)[C@H](c1ccccc1)CC3)CC2", "values": [{"measurement": "half-life", "setting": "[3]", "result": 31.8, "unit": "min"}, {"measurement": "Vd", "setting": "[4]", "result": 1.84, "unit": "L/kg"}, {"measurement": "clearance", "setting": "[5]", "result": 49.2, "unit": "mL/min/kg"}]}, {"smiles": "Cc1cc(-c2cnc(N)c3c(-c4ccc5scnc5c4)csc23)n(C)n1", "values": [{"measurement": "inhibition", "setting": "[6]", "result": 84, "unit": "%"}]}, {"smiles": "CN(c1ccc(NC(=O)Nc2ccc(OC(F)(F)F)cc2)cc1)c1ccnc(Nc2cccc(S(N)(=O)=O)c2)n1", "note": "[GW806742X]", "values": [{"measurement": "EC50", "setting": "Jurkat [7]", "result": 1850, "unit": "nM"}, {"measurement": "IC50", "setting": "[8]", "result": "< 50", "unit": "nM"}]}, {"smiles": "CN1C(=O)[C@@H](NC(=O)c2nc(Cc3ccccc3)n[nH]2)COc2ccc(C#CC3CC3)cc21", "values": [{"measurement": "Vdss", "setting": "[9]", "result": 0.902, "unit": "L/kg"}, {"measurement": "AUClast", "setting": "[10]", "result": 15000, "unit": "ng·h/mL"}, {"measurement": "bioavailability", "setting": "[11]", "result": 99, "unit": "%"}, {"measurement": "CL/F", "setting": "[12]", "result": 3.54, "unit": "mL/min/kg"}]}, {"smiles": "COc1nccnc1NS(=O)(=O)c1ccc(NC(=O)/C=C/c2ccc([N+](=O)[O-])s2)cc1", "values": [{"measurement": "IC50", "setting": "Jurkat [13]", "result": "< 1000", "unit": "nM"}, {"measurement": "IC50", "setting": "HT-29", "result": "< 1000 nM and 124 nM"}]}, {"smiles": "N#Cc1c(Oc2ccc(F)c(NC(=O)Cc3cccc(C(F)(F)F)c3)c2)ccc2nc(NC(=O)C3CC3)sc12", "values": [{"measurement": "Kd", "setting": "[14]", "result": 105, "unit": "nM"}]}, {"smiles": "Cl.O=S1(=O)C=C(C2CC2)c2cc3nccc(Nc4ccc5scnc5c4)c3cc21", "values": [{"measurement": "inhibition at 10 µM", "setting": "CYP2D6", "result": "< 10", "unit": "%"}, {"measurement": "inhibition at 10 µM", "setting": "CYP3A4", "result": "< 10", "unit": "%"}, {"measurement": "inhibition at 10 µM", "setting": "CYP2C9", "result": "< 10", "unit": "%"}, {"measurement": "half-life", "setting": "[15]", "result": 90, "unit": "min"}, {"measurement": "half-life", "setting": "[16]", "result": 26, "unit": "min"}, {"measurement": "CLint scaled", "setting": "[17]", "result": 212, "unit": "mL/min/kg"}, {"measurement": "Vd", "setting": "[18]", "result": 4.4, "unit": "L/kg"}, {"measurement": "AUC", "setting": "[19]", "result": 8200, "unit": "ng·h/mL"}, {"measurement": "inhibition at 10 µM", "setting": "CYP2C19", "result": "< 10", "unit": "%"}, {"measurement": "CLint scaled", "setting": "[20]", "result": 67, "unit": "mL/min/kg"}, {"measurement": "IC50", "setting": "[21]", "result": "> 10000", "unit": "nM"}, {"measurement": "inhibition at 10 µM", "setting": "CYP1A2", "result": "< 10", "unit": "%"}, {"measurement": "clearance", "setting": "[22]", "result": 33, "unit": "mL/min/kg"}, {"measurement": "half-life", "setting": "[23]", "result": 36, "unit": "min"}]}, {"smiles": "Cc1ccc(Oc2ccnc3cc(-c4cnn(C5CCNCC5)c4)ccc23)cc1", "values": [{"measurement": "EC50", "setting": "[24]", "result": 20.8, "unit": "nM"}]}, {"smiles": "CC(C)S(=O)(=O)c1ccc2nccc(Nc3ccc4scnc4c3)c2c1", "values": [{"measurement": "inhibition", "setting": "[6]", "result": 76, "unit": "%"}]}]}
